Measurements published in ChEMBL document CHEMBL1150092, “Isolation and characterization of cytotoxic and antibacterial tetrasaccharide glycosides from Ipomoea stans” (1995).
Converted amounts (≈) assume the structure as drawn.

Assays:
P388 = assay: Cytotoxicity against mouse P388 cells; format: functional; settings: read-out: ED50 (the source's name)
Staphylococcus aureus = assay: Antimicrobial activity against Staphylococcus aureus ATCC 6538; format: functional, organism-based
Bacillus subtilis = assay: Antimicrobial activity against Bacillus subtilis ATCC 6633; format: functional, organism-based

| Compound | EC50 (P388) [µg/mL] | MIC (Staphylococcus aureus) [µg/mL] | MIC (Bacillus subtilis) [µg/mL] |
| --- | --- | --- | --- |
| CCCCC[C@H]1CCCCCCCCCC(=O)O[C@H]2[C@H](O)[C@@H](CO)O[C@@H](O[C@H]3[C@H](O1)O[C@H](C)[C@H](O)[C@@H]3O)[C@@H]2O[C@@H]1O[C@@H](C)[C@H](OC(=O)[C@@H](C)CC)[C@@H](O[C@@H]2O[C@@H](C)[C@H](O)[C@@H](O)[C@H]2O)[C@H]1OC(=O)[C@@H](C)CC [TRICOLORIN A] | 2.2 (≈ 2.15 µM) | – | – |
| NYSTATIN | – | 8 | 16 |
